Measured values as given in ChEMBL document CHEMBL1201862, “PubChem BioAssay data set” (2004).
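Dose response: 5 concentrations. Exposure: 48 h. Format: 96-well plates. Endpoint: linear interpolation; highest concentration if not reached. GI50: concentration for 50% inhibition of growth.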 The source made the active and inactive calls. Rule as the data show it: active = GI50 up to about 1.1 µM and inactive = higher.

Assays:
Test in all cases: NCI tumour cell line growth inhibition, 48 h
RXF 631 = tested on: RXF 631
SN12C = tested on: SN12C
NCI-H460 = tested on: NCI-H460
NCI-H226 = tested on: NCI-H226
HOP-92 = tested on: HOP-92
NCI-H23 = tested on: NCI-H23
SF-268 = tested on: SF-268
U-251 = tested on: U-251
TK-10 = tested on: TK-10
SNB-78 = tested on: SNB-78
NCI-H522 = tested on: NCI-H522
OVCAR-4 = tested on: OVCAR-4
SW-620 = tested on: SW-620
SK-OV-3 = tested on: SK-OV-3
HOP-62 = tested on: HOP-62
DMS-114 = tested on: DMS-114
HCT-15 = tested on: HCT-15
IGROV-1 = tested on: IGROV-1
DLD-1 = tested on: DLD-1
UO-31 = tested on: UO-31
HT-29 = tested on: HT-29
LXFL 529 = tested on: LXFL 529
LOX IMVI = tested on: LOX IMVI
RXF 393 = tested on: RXF 393
CCRF-CEM = tested on: CCRF-CEM
RPMI-8226 = tested on: RPMI-8226
DMS-273 = tested on: DMS-273
COLO 205 = tested on: COLO 205
M19-MEL = tested on: M19-MEL
SNB-19 = tested on: SNB-19
HL-60 = tested on: HL-60
Malme-3M = tested on: Malme-3M
K562 = tested on: K562
KM-20L2 = tested on: KM-20L2
CAKI-1 = tested on: CAKI-1
SNB-75 = tested on: SNB-75
ACHN = tested on: ACHN
SF-539 = tested on: SF-539
EKVX = tested on: EKVX
HCT-116 = tested on: HCT-116
SF-295 = tested on: SF-295
M14 = tested on: M14
HCC 2998 = tested on: HCC 2998
SK-MEL-5 = tested on: SK-MEL-5
OVCAR-3 = tested on: OVCAR-3
XF498 = tested on: XF498
A549 = tested on: A549
HOP-18 = tested on: HOP-18
SR = tested on: SR
SK-MEL-28 = tested on: SK-MEL-28
OVCAR-5 = tested on: OVCAR-5
MOLT-4 = tested on: MOLT-4
SK-MEL-2 = tested on: SK-MEL-2
786-0 = tested on: 786-0
UACC-62 = tested on: UACC-62
KM12 = tested on: KM12
UACC-257 = tested on: UACC-257
OVCAR-8 = tested on: OVCAR-8

With `O=C(CCCCCCCCCCc1ccccc1)c1c(O)cccc1O` the GI50 (RXF 631) was 30.8 µM (inactive), the GI50 (SN12C) was 18.7 µM (inactive) and the GI50 (NCI-H460) was 20.8 µM (inactive). For the same compound, the GI50 (NCI-H226) was 21.2 µM (inactive), the GI50 (HOP-92) was 23.5 µM (inactive) and the GI50 (NCI-H23) was 18.9 µM (inactive). The GI50 (SF-268) was 23.8 µM (inactive), the GI50 (U-251) was 21.2 µM (inactive) and the GI50 (TK-10) was 39 µM (inactive). For the same compound, the GI50 (SNB-78) was 45.7 µM (inactive), the GI50 (NCI-H522) was 21.4 µM (inactive) and the GI50 (OVCAR-4) was 25.3 µM (inactive). The GI50 (SW-620) was 19.5 µM (inactive), the GI50 (SK-OV-3) was 44.8 µM (inactive) and the GI50 (HOP-62) was 20.8 µM (inactive). For the same compound, the GI50 (DMS-114) was 20.7 µM (inactive), the GI50 (HCT-15) was 20 µM and the GI50 (IGROV-1) was 26.5 µM (inactive). The GI50 (DLD-1) was 21.3 µM (inactive), the GI50 (UO-31) was 21.1 µM (inactive) and the GI50 (HT-29) was 33 µM (inactive). For the same compound, the GI50 (LXFL 529) was 18.6 µM (inactive), the GI50 (LOX IMVI) was 27.2 µM (inactive) and the GI50 (RXF 393) was 19.4 µM (inactive). The GI50 (CCRF-CEM) was 31.6 µM (inactive), the GI50 (RPMI-8226) was 34.7 µM (inactive) and the GI50 (DMS-273) was 18.2 µM (inactive). The GI50 (COLO 205) was 23.8 µM (inactive), the GI50 (M19-MEL) was 20.7 µM (inactive) and the GI50 (SNB-19) was 20.2 µM (inactive). The GI50 (HL-60) was 25.1 µM (inactive), the GI50 (Malme-3M) was 17.9 µM (inactive) and the GI50 (K562) was 21.4 µM (inactive). The GI50 (KM-20L2) was 61.7 µM (inactive), the GI50 (CAKI-1) was 29.5 µM (inactive) and the GI50 (SNB-75) was 29 µM (inactive). For the same compound, the GI50 (ACHN) was 28.1 µM (inactive), the GI50 (SF-539) was 18.1 µM (inactive) and the GI50 (EKVX) was 21.3 µM (inactive). The GI50 (HCT-116) was 22.7 µM (inactive), the GI50 (SF-295) was 21.3 µM (inactive) and the GI50 (M14) was 20 µM (inactive). The GI50 (HCC 2998) was 19.4 µM (inactive), the GI50 (SK-MEL-5) was 16.1 µM (inactive) and the GI50 (OVCAR-3) was 27 µM (inactive). For the same compound, the GI50 (XF498) was 20.2 µM (inactive), the GI50 (A549) was 27.7 µM (inactive) and the GI50 (HOP-18) was 29.1 µM (inactive). The GI50 (SR) was 25.2 µM (inactive), the GI50 (SK-MEL-28) was 20 µM (inactive) and the GI50 (OVCAR-5) was 21.2 µM (inactive). The GI50 (MOLT-4) was 23.7 µM (inactive), the GI50 (SK-MEL-2) was 15.8 µM (inactive) and the GI50 (786-0) was 17.7 µM (inactive). The GI50 (UACC-62) was 20.7 µM (inactive), the GI50 (KM12) was 18.4 µM (inactive) and the GI50 (UACC-257) was 20.2 µM (inactive). The GI50 (OVCAR-8) was 20.7 µM (inactive).
